Results on 56 compounds are retold here after US20260193236A1 (Protego Biopharma, Inc., priority 2022, published 2026).

Where a name gives a salt, the structure may show the parent alone. A value given as a limit tells only on which side of the number the result lay.

The test system of the first assay is IRE1-XBP1s (XBP1-RLuc splicing reporter in HEK293 T-REx cells). The assay is described as follows: IRE1-XBP1s activation assay (XBP1-RLuc splicing reporter, HEK293 T-REx cells, luminescence relative to thapsigargin). Format: cell-based. The settings on record: 18 h, compound 10 μM, HEK293 T-REx XBP1-RLuc reporter cells, relative to thapsigargin (Tg) 500 nM, read-out: Activity (IRE1-XBP1s activation, luminescence as % signal relative to thapsigargin, % Tg). The procedure:
IRE1-XBP1s activation Assay: HEK293 T-REx cells stably expressing the XBP1-RLuc splicing reporter were treated with an IRE1-XBP1s activator provided herein (10 μM) in the presence or absence of the IRE1 active site inhibitor 4μ8C (32 μM) for 18 h. Luminescence was shown as the percentage signal relative to thapsigargin (Tg) (500 nM, 18 h).
Consider `Cc1ccc(OCCN(C)C(=O)Cn2cc(NC(=O)CCOc3ccc(Cl)cc3F)cn2)cc1` [Compound 48], for which the activation at 10 µM was less than 30%.
The same measure, in the same setting: in the case of `Cc1ccc(OCCN(C)C(=O)Cn2cc(NC(=O)CCOc3c(C(C)C)ccnc3C)cn2)cc1` [Compound 15] it was more than 50%; in that of `Cc1cc(OCCN(C)C(=O)Cn2cc(NC(=O)CCNc3ccnc(F)n3)cn2)no1` [Compound 263], less than 30%; in that of `Cc1ccc(OCCC(=O)Nc2cnn(CC(=O)N(C)CCOc3ccc(C)c(C(F)(F)F)c3)c2)c(F)c1` [Compound 79], less than 30%.
The same measure, in the same setting: in the case of `Cc1ccc(OCCN(C)C(=O)Cn2cc(NC(=O)CCNc3ncccn3)cn2)cc1` [Compound 138] it was more than 50%; in that of `Cc1ccc(OCCN(C)C(=O)Cn2cc(NC(=O)CCOc3ccc4c(c3)OCO4)cn2)cc1` [Compound 33], more than 50%.
The same measure, in the same setting: as for `CCc1ccc(OCCN(C)C(=O)Cn2cc(NC(=O)CCOc3ccccc3)cn2)cc1` [Compound 26], the figure is more than 50%; as for `Cc1ccc(OCCN(C)C(=O)Cn2cc(NC(=O)CCOC3CCCCC3(C)C)cn2)cc1` (centres unmarked) [Compound 4], less than 30%.
For `Cc1ccc(OCCN(C)C(=O)Cn2cc(NC(=O)C(CNc3ncc(F)cn3)CC(C)C)cn2)cc1` (centres unmarked) [Compound 162], the activation at 10 µM is less than 30%.
As for `COc1ccc(OCCN(C)C(=O)Cn2cc(NC(=O)CCOc3ccc(C)cc3F)cn2)cc1` [Compound 77], the activation at 10 µM is less than 30%.
The same measure, in the same setting: as for `CN(CCOc1ccncc1)C(=O)Cn1cc(NC(=O)CCOc2ccccc2F)cn1` [Compound 55], the figure is less than 30%.
Same read-out and setting: in the case of `COc1cccc(NCCC(=O)Nc2cnn(CC(=O)N(C)CCOc3ccc(C)cc3)c2)n1` [Compound 188] it was less than 30%; in that of `Cc1ccc(OCCN(C)C(=O)Cn2cc(NC(=O)CCOc3cccnc3C(F)(F)F)cn2)cc1` [Compound 16], 30 to 50%; in that of `Cc1ccc(OCCN(C)C(=O)Cn2cc(NC(=O)CNC(=O)c3ncc(F)cn3)cn2)cc1` [Compound 249], less than 30%.
`Cc1ccc(OCCN(C)C(=O)Cn2cc(NC(=O)CCNc3ccnc(Br)c3)cn2)cc1` [Compound 135]: the activation at 10 µM was 30 to 50%.
Same read-out and setting: in the case of `Cc1ccc(OCCN(C)C(=O)Cn2cc(NC(=O)CCOc3ncccc3N)cn2)cc1` [Compound 114] it was more than 50%.
On to `Cc1cnc(OCCN(C)C(=O)Cn2cc(NC(=O)CCNc3ccc(F)nc3C)cn2)cn1` [Compound 240], for which the activation at 10 µM is less than 30%.
In the case of `Cc1ccc(OCCN(C)C(=O)Cn2cc(NC(=O)CCNc3cnc(C)nc3)cn2)cc1` [Compound 212], the activation at 10 µM is less than 30%.
Still for that read-out and setting: as for `CN(CCOc1ccc(F)cc1)C(=O)Cn1cc(NC(=O)CCOc2ccccc2)cn1` [Compound 29], the figure is less than 30%; as for `Cc1ccc(OC[C@@H](C)N(C)C(=O)Cn2cc(NC(=O)CCNc3ccnc(O)n3)cn2)cc1` [Compound 266], less than 30%; as for `Cc1ccc(OCCN(C)C(=O)Cn2cc(N(C)C(=O)CCOc3ccccc3)cn2)cc1` [Compound 50], less than 30%.
The same measure, in the same setting: as for `Cc1ccc(OCCN(C)C(=O)Cn2cc(NC(=O)CCOc3ccncc3N)cn2)cc1` [Compound 112], the figure is 30 to 50%; as for `COC(=O)Nc1cccc(NCCC(=O)Nc2cnn(CC(=O)N(C)CCOc3ccc(C)cc3)c2)n1` [Compound 253], less than 30%.
The same measure, in the same setting: as for `COc1ncc(C(F)(F)F)cc1NCCC(=O)Nc1cnn(CC(=O)N(C)CCOc2ccc(C)cc2)c1` [Compound 187], the figure is 30 to 50%; as for `Cc1ccc(OCCN(C)C(=O)Cn2cc(NC(=O)CCNc3cccc(N)n3)cn2)cc1` [Compound 154], more than 50%; as for `Cc1ccc(OCCN(C)C(=O)Cn2cc(NC(=O)CCNc3c(F)cnc(C)c3C3CC3)cn2)cc1` [Compound 214], more than 50%.
For the compound `Cc1ccc(OCCN(C)C(=O)Cn2cc(NC(=O)CCOc3ccc(F)cc3C)cn2)cc1` [Compound 35], the activation at 10 µM is more than 50%.
Still for that read-out and setting: as for `Cc1ccc(OCCN(C)C(=O)Cn2cc(NC(=O)CCOc3cccc(N(C)C)c3)cn2)cc1` [Compound 38], the figure is more than 50%; as for `Cc1ccc(OCCN(C)C(=O)Cn2cc(NC(=O)[C@H](CNc3ccc(F)nc3C)C(C)C)cn2)cc1` [Compound 172], 30 to 50%.
Take `Cc1ccc(OCCN(C)C(=O)Cn2cc(NC(=O)CCNc3ccc4c(c3)OC(F)(F)O4)cn2)cc1` [Compound 290]: the activation at 10 µM is less than 30%.
Same read-out and setting: in the case of `Cc1ccc(OCCN(C)C(=O)Cn2cc(NC(=O)CCNc3ccc(OCc4ccccc4)cn3)cn2)cc1` [Compound 165] it was less than 30%; in that of `Cc1ccc(OC[C@H](C)N(C)C(=O)Cn2cc(NC(=O)CCOc3c(F)cccc3F)cn2)cc1` [Compound 81], more than 50%; in that of `Cc1ccc(OCCN(C)C(=O)Cn2cc(NC(=O)CCNc3ncc(C(F)(F)F)cc3Cl)cn2)cc1` [Compound 130], less than 30%.
Turning to `Cc1ccc(OCCN(C)C(=O)Cn2cc(NC(=O)CCNc3cccc(F)n3)cn2)cc1` [Compound 144], the activation at 10 µM was more than 50%.
The same measure, in the same setting: as for `CCc1ccc(OCCN(C)C(=O)Cn2cc(NC(=O)CCOc3ccccc3F)cn2)cc1` [Compound 52], the figure is 30 to 50%; as for `C#CCCC1(CCC(=O)Nc2ncccc2OCCC(=O)Nc2cnn(CC(=O)N(C)CCOc3ccc(C)cc3)c2)N=N1` [Compound 296, 3-(3-but-3-ynyldiazirin-3-yl)-N-[3-[3-[[1-[2-[methyl-[2-(4-methylphenoxy)ethyl]amino]-2-oxo-ethyl]pyrazol-4-yl]amino]-3-oxo-propoxy]-2-pyridyl]propanamide], less than 30%; as for `Cc1ccc(OCCN(C)C(=O)Cn2cc(NC(=O)[C@H](C)CNc3ccc(F)nc3C)cn2)cc1` [Compound 170], 30 to 50%.
The same measure, in the same setting: in the case of `CC(C)c1cncc(F)c1NCCC(=O)Nc1cnn(CC(=O)N(C)CCOc2ccc(C(F)(F)F)cn2)c1` [Compound 269] it was more than 50%; in that of `Cc1ccc(OCCN(C)C(=O)Cn2cc(NC(=O)CCNc3ccnc(C)c3F)cn2)cc1` [Compound 209], less than 30%; in that of `Cc1ccc(OCCN(C)C(=O)Cn2cc(NC(=O)CCOc3c(C)ccnc3N)cn2)cc1` [Compound 17], less than 30%.
`Cc1ccc(OCCN(C)C(=O)Cn2cc(NC(=O)CCNc3ccc4c(n3)OCO4)cn2)cc1` [Compound 286, 3-([1,3]dioxolo[4,5-b]pyridin-5-ylamino)-N-(1-(2-(methyl (2-(p-tolyloxy)ethyl)amino)-2-oxoethyl)-1H-pyrazol-4-yl)propanamide]: the activation at 10 µM is more than 50%.
`Cc1ccc(OCCN(C)C(=O)Cn2cc(NC(=O)[C@@H](C)CNc3nccc(F)n3)cn2)cc1` [Compound 223]: the activation at 10 µM is more than 50%.
Still for that read-out and setting: as for `Cc1ccc(OCCN(C)C(=O)Cn2cc(NC(=O)CCNc3ncc(F)cn3)cn2)cc1` [Compound 193], the figure is 30 to 50%.
Still for that read-out and setting: in the case of `Cc1ccc(OC[C@@H](C)N(C)C(=O)Cn2cc(NC(=O)CCOc3c(F)cccc3F)cn2)cc1` [Compound 82] it was more than 50%; in that of `Cc1ccc(OCCC(=O)Nc2cnn(CC(=O)N(C)CCOc3ccc(F)cc3)c2)c(F)c1` [Compound 75], less than 30%; in that of `Cc1ccc(OCCC(=O)Nc2cnn(CC(=O)N(C)CCOc3ncn(C)n3)c2)c(F)c1` [Compound 90], less than 30%.
The same measure, in the same setting: as for `Cc1ccc(OCCN(C)C(=O)Cn2cc(NC(=O)CCNc3ccc(C)nc3F)cn2)cc1` [Compound 181], the figure is less than 30%; as for `Cc1ccc(OCCN(C)C(=O)Cn2cc(NC(=O)CCNc3ncc(Cl)cc3F)cn2)cc1` [Compound 140], more than 50%; as for `CNc1ccnc(OCCC(=O)Nc2cnn(CC(=O)N(C)CCOc3ccc(C)cc3)c2)n1` [Compound 216], less than 30%.
`Cc1ccc(OCCN(C)C(=O)Cn2cc(NC(=O)CCOc3c(F)cncc3Br)cn2)cc1` [Compound 97]: the activation at 10 µM was less than 30%.
Still for that read-out and setting: as for `Cc1ccc(OCCN(C)C(=O)Cn2cc(NC(=O)COc3c(F)cncc3C(C)C)cn2)cc1` [Compound 274, 2-(4-(2-((3-fluoro-5-isopropylpyridin-4-yl)oxy)acetamido)-1H-pyrazol-1-yl)-N-methyl-N-(2-(p-tolyloxy)ethyl)acetamide], the figure is less than 30%; as for `CN(CCOc1ccc(C(F)(F)F)cc1)C(=O)Cn1cc(NC(=O)CCOc2ccccc2F)cn1` [Compound 40], more than 50%.
On the same count and under the same terms, in the case of `Cc1ccc(OCCN(C)C(=O)Cn2cc(NC(=O)CC(C)(C)Nc3nccc(F)n3)cn2)cc1` [Compound 218, 3-((4-fluoropyrimidin-2-yl)amino)-3-methyl-N-(1-(2-(methyl(2-(p-tolyloxy)ethyl)amino)-2-oxoethyl)-1H-pyrazol-4-yl)butanamide] it was more than 50%.

Still in this assay, the particulars now being: 18 h, read-out: Activity (IRE1-XBP1s activation, luminescence as % signal relative to thapsigargin, % Tg).
As to `C#CC1CCCCC1OCCC(=O)Nc1cnn(CC(=O)N(C)CCOc2ccc(C)cc2)c1` (centres unmarked) [Compound 2, 3-((2-ethynylcyclohexyl)oxy)-N-(1-(2-(methyl(2-(p-tolyloxy)ethyl)amino)-2-oxoethyl)-1H-pyrazol-4-yl)propanamide hydrochloride], the activation at 10 µM is more than 50%.
On the same count and under the same terms, in the case of `Cc1ccc(OCCN(C)C(=O)Cn2cc(NC(=O)COc3cccc4cccnc34)cn2)cc1` [Compound 287, N-methyl-2-(4-(2-(quinolin-8-yloxy)acetamido)-1H-pyrazol-1-yl)-N-(2-(p-tolyloxy)ethyl)acetamide] it was less than 30%.
In the case of `Cc1ccc(OCCN(C)C(=O)Cn2cc(NC(=O)C(C)(C)COc3ccccc3)cn2)cc1` [Compound 37, 2,2-dimethyl-N-(1-(2-(methyl(2-(p-tolyloxy)ethyl)amino)-2-oxoethyl)-1H-pyrazol-4-yl)-3-phenoxypropanamide], the activation at 10 µM was less than 30%.
